Measurements from US12594271B2, “Combination therapy for cancer” (Health Research, Inc., priority 2019, dated 2026).
“Also recorded” adds a separate entry of the source.

Assays:
4T1 tumors cells = assay: 4T1 orthotopic mammary tumor model: tumor growth and spontaneous lung metastases; type: in vivo, mice; conditions: BRQ 10 mg/kg i.p. daily
Method: FIG. 1. […] (A) 4T1 growth in mice treated daily with BRQ (10 mg/kg, i.p.), anti-PD-1 ([…], i.p. at the indicated 3 or 4 times) or both agents. n=5 mice/group/experiment for upper and lower graphs; *P<0.01 against single-agent treatments. B-D, data shown are for analysis of A, upper graph. (B) Spontaneous metastatic lung counts; *P<0.01. Similar patterns seen in the 2nd experiment (avg. #mets): vehicle=12; BRQ=1; αPD-1=5; combo=1. (C) Splenic granulocytic (CD11b^+Ly6C^loLy6G^+) or monocytic (CD11b^+Ly6C^hiLy6G^−) numbers in non-tumor-bearing (NTB) or tumor-bearing mice were converted to a ratio for group-by-group comparison; *P<0.03. (D) Splenic CD3^+ T cell numbers in tumor-bearing mice. (E) Splenic CD8^+ T cells in A (lower graph) were assayed based on differential expression of CD44:naïve ([…]) vs. effector/central memory (hi) phenotypes. *P<0.03. Data reported as a ratio to indicate a rising memory pool. […]
Treatment of Tumor-Bearing Mice Alters Surface Phenotype of Myeloid Cells. […] Female BALB/c or C57BL/6 mice were orthotopically implanted with 4T1 or AT-3 mammary tumor cells, respectively, and were monitored 3 times weekly for tumor growth. […]
Effect of Treatment of Tumor-Bearing Mice with BRQ on the Efficacy of Anti-Tumor Immunotherapy. […] At endpoint, BM cells or spleens were collected and analyzed for the indicated populations by flow cytometry. […]

MDSCs = assay: Phenotype, viability and morphology of in vitro generated MDSC cultures; type: cell-based, mouse
Method: In Vitro Development of MDSCs. Unfractionated mouse bone marrow cells were cultured in dishes with recombinant mouse G-CSF and recombinant mouse GM-CSF (40 ng/ml of each cytokine) for 96 hours to produce MDSCs, as described (Marigo et al. Immunity 32:790-802, 2010). After culture, cells were collected and analyzed by flow cytometry for the indicated cell surface markers. Uncultured or fresh bone marrow (BM) cells served as a negative control.
Effect of BRQ Treatment on In Vitro Generated MDSCs. As in FIG. 4, MDSCs were generated in vitro, but now with or without (vehicle) the concurrent addition of brequinar (BRQ) (1 μM) at the start of the culture. After culture, cells were collected and analyzed by flow cytometry for the indicated cell surface markers. Uncultured (fresh) BM cells served as a negative control. Viable cells were enumerated by trypan blue dye exclusion (bottom left panel, % viability; bottom right panel, total viable cells recovered).
Cells Treated with BRQ Appear More Mature Morphologically and Phenotypically. Methods were the same as in FIG. 6. MDSCs were generated in vitro with or without BRQ. Afterwards, cells were collected and analyzed morphologically by Wright-Giemsa staining of cytospin-prepared slides. Left top panel, representative photomicrograph images [(arrows indicate representative immature myeloid (−BRQ) vs. mature (+BRQ) cell types)]; Left bottom panel, the % of each cell type was quantified as follows. Cells were classified into 3 main morphologic cell types, as shown. For the lower panel, 300 cells were analyzed per random field and 3 separate fields were analyzed (totaling 900 cells). The average number of each cell type was determined by dividing by 3, and the data were converted to a percentage within the total population. Using the in vitro assay described previously to produce MDSCs, the CD11b^+Ly6C^lo Ly6G^+ subset (also known as PMN-MDSCs) was analyzed for cell surface CD101 expression by flow cytometry on cultures without BRQ (labeled here as ‘GM-CSF+G-CSF’) or with BRQ. Isotype control staining was included as a negative control for the specificity of CD101 reactivity. Middle panel, representative histogram; right panel, mean fluorescence intensity (MFI) data quantified from 2 separate experiments.

[1] = BRQ 1 μM, trypan blue dye exclusion
[2] = bone marrow cells cultured with BRQ, morphologic analyses
[3] = cultures with BRQ, Wright-Giemsa staining

SMILES: Cc1c(-c2ccc(-c3ccccc3F)cc2)nc2ccc(F)cc2c1C(=O)O [BRQ, 6-Fluoro-2-(2′-fluoro-[1,1′-biphenyl]-4-yl)-3-methylquinoline-4-carboxylic acid]
- Spontaneous metastatic lung counts (avg. #mets) (4T1 tumors cells; 2nd experiment, anti-PD-1 200 μs i.p. 3 or 4 times, endpoint): 1
- 4T1 tumor growth (4T1 tumors cells; BALB/c mice, anti-PD-1 200 μg i.p.): little effect on tumor growth; also recorded: only a nominal effect on primary tumor growth
- generation of CD11b+Gr-1+ cells (MDSCs; BRQ 1 μM, flow cytometry): did not substantially alter
- cell viability (MDSCs; [1]): not significantly altered
- number of live cells recovered (MDSCs; [1]): substantially reduced
- mature myeloid cells (mainly neutrophils and macrophages) (MDSCs; [2]): corresponding increase in mature myeloid cells
- reduction in immature myeloid cells (MDSCs; [2]): 75%
- immature cell types (MDSCs; [3]): reduction in immature cell types
- proportion of macrophages (MDSCs; [3]): no demonstrable effect
- proportion of segmented neutrophils (MDSCs; [3]): increased the proportion of segmented neutrophils
- cell surface CD101 expression (MFI) on CD11b+Ly6CloLy6G+ subset (MDSCs; cultures with BRQ, flow cytometry): significantly increased the expression of CD101
